In patent US8871933B2, “Purified pyrroloquinolinyl-pyrrolidine-2,5-dione compositions and methods for preparing and using same” (ArQule, Inc., priority 2009, dated 2014):

How the values were obtained:
[1] = tested on: A549 human lung cancer cells; assay: Annexin V / propidium iodide apoptosis staining; assay type: cell-based; design: dose or concentration left out as unconfirmed
Experimental: A549 human lung cancer cells in a 96-well plate (Costar 3603, 5,000/well) were treated with either A) DMSO as a control; B) […] (−)-trans-3-(5,6-dihydro-4H-pyrrolo[3,2,1-ij]quinolin-1-yl)-4-(1H-indol-3-yl)pyrrolidine-2,5-dione for 38 hours before addition of 1:200 fluorescent Annexin V (green) and 1:500 Propidium iodide (magenta, final concentration of […]). The labeling procedure was allowed to process at 37° C. for 20 minutes followed by image acquisition and analysis using an IC100 Image Cytometer (Beckman Coulter, Inc) with 10× amplification. To determine whether (−)-trans-3-(5,6-dihydro-4H-pyrrolo[3,2,1-ij]quinolin-1-yl)-4-(1H-indol-3-yl)pyrrolidine-2,5-dione works primarily through a cytostatic or apoptotic mechanism, cancer cells exposed to (−)-trans-3-(5,6-dihydro-4H-pyrrolo[3,2,1-ij]quinolin-1-yl)-4-(1H-indol-3-yl)pyrrolidine-2,5-dione were stained with fluorescently labeled Annexin V (green fluorescence) and propidium iodide (bright magenta fluorescence). Annexin V is a well-validated reagent that specifically binds with high affinity to externalized membrane phosphatidylserine, an early marker of the onset of apoptosis, while propidium iodide is a marker for dead cells. […] (See, FIG. 6)

[2] = tested on: HT-29 human colon cancer cells; assay: Human colon cancer xenograft; assay type: in vivo, female athymic nude mice; conditions: for optimal tumor growth inhibition: 20 treatments
Experimental: In a human colon cancer xenograft model HT-29 human colon cancer cells were inoculated subcutaneously into female athymic nude mice (5×10^6 cells/mouse) and allowed to form palpable tumors. Once the tumors reached approximately 60 mm^3, the animals were treated orally with either (−)-trans-3-(5,6-dihydro-4H-pyrrolo[3,2,1-ij]quinolin-1-yl)-4-(1H-indol-3-yl)pyrrolidine-2,5-dione at 200 mg/kg or 300 mg/kg, or vehicle control daily (5 consecutive days, followed by a 2 day dosing holiday). (−)-trans-3-(5,6-dihydro-4H-pyrrolo[3,2,1-ij]quinolin-1-yl)-4-(1H-indol-3-yl)pyrrolidine-2,5-dione was formulated in PEG 400:20% Vitamin E TPGS (60:40). The animals received a total of 20 treatments of either (−)-trans-3-(5,6-dihydro-4H-pyrrolo[3,2,1-ij]quinolin-1-yl)-4-(1H-indol-3-yl)pyrrolidine-2,5-dione or vehicle control. Tumors were measured throughout treatment and the post-treatment observation period. Each point represents the mean±SEM often tumors. (See, FIG. 9, Panel A)

[3] = tested on: human prostate cancer PC3; assay: Human prostate cancer xenograft; assay type: in vivo; conditions: monotherapy
Experimental: (§1) The efficacy of (−)-trans-3-(5,6-dihydro-4H-pyrrolo[3,2,1-ij]quinolin-1-yl)-4-(1H-indol-3-yl)pyrrolidine-2,5-dione was also tested in xenograft models with several other cancer cell lines: human pancreatic cancer MIA PaCa2 (FIG. 9, Panel B), human prostate cancer PC3 (FIG. 9, Panel C) and human gastric cancer MKN45 (FIG. 9, Panel D). The cells were treated with (−)-trans-3-(5,6-dihydro-4H-pyrrolo[3,2,1-ij]quinolin-1-yl)-4-(1H-indol-3-yl)pyrrolidine-2,5-dione as a monotherapy at indicated concentrations.

[4] = tested on: human gastric cancer MKN45; assay: Human gastric cancer xenograft; assay type: in vivo; conditions: monotherapy
Experimental: as §1

[5] = tested on: Human cancer cell lines expressing c-Met and/or phospho-c-Met; assay: Cytotoxicity MTS assay; assay type: cell-based; conditions: 0.03 to 30 μM
Experimental: (§2) Various cancer cell lines were treated with (−)-trans-3-(5,6-dihydro-4H-pyrrolo[3,2,1-ij]quinolin-1-yl)-4-(1H-indol-3-yl)pyrrolidine-2,5-dione at indicated concentrations ranging from 0.03 to 30 μM. The sensitivity of these cells to (−)-trans-3-(5,6-dihydro-4H-pyrrolo[3,2,1-ij]quinolin-1-yl)-4-(1H-indol-3-yl)pyrrolidine-2,5-dione was measured by a standard cytoxicity MTS assay (FIG. 10). Human cancer cell lines expressing c-Met and/or phospho-c-Met were sensitive to (−)-trans-3-(5,6-dihydro-4H-pyrrolo[3,2,1-ij]quinolin-1-yl)-4-(1H-indol-3-yl)pyrrolidine-2,5-dione.

MCF-7 = assay: Cytotoxicity MTS assay; assay type: cell-based, human; conditions: 0.03 to 30 μM; no immunodetectable c-Met or phospho-c-Met
Experimental: as §2

NCI-H661 = assay: Cytotoxicity MTS assay; assay type: cell-based, human; conditions: 0.03 to 30 μM; no immunodetectable c-Met or phospho-c-Met
Experimental: as §2

SK-MEL-28 = assay: Cytotoxicity MTS assay; assay type: cell-based, human; conditions: 0.03 to 30 μM; no immunodetectable c-Met or phospho-c-Met
Experimental: as §2

[6] = tested on: panel (n=230) of human kinases; assay: Large panel (n=230) of human kinases; assay type: biochemical; conditions: n=230 human kinases
Experimental: (−)-trans-3-(5,6-dihydro-4H-pyrrolo[3,2,1-ij]quinolin-1-yl)-4-(1H-indol-3-yl)pyrrolidine-2,5-dione was assessed for its activity to inhibit a large panel (n=230) of human kinases.

[7] = tested on: clear cell sarcoma and MiT-associated tumors; assay: Clinical study in patients with clear cell sarcoma and MiT-associated tumors; assay type: in vivo, human
Source text: The present example describes the inhibition of c-Met Receptor Tyrosine Kinase in Clear Cell Sarcoma and MiT (Microphthalmia Transcription Factor)-Associated Tumors. […] The studies described in the present example used (−)-trans-3-(5,6-dihydro-4H-pyrrolo[3,2,1-ij]quinolin-1-yl)-4-(1H-indol-3-yl)pyrrolidine-2,5,-dione, a small molecule inhibitor of the c-Met receptor tyrosine kinase.
(−)-trans-3-(5,6-dihydro-4H-pyrrolo[3,2,1-ij]quinolin-1-yl)-4-(1H-indol-3-yl)pyrrolidine-2,5,-dione was administered to a patient with clear cell sarcoma. […]
(−)-trans-3-(5,6-dihydro-4H-pyrrolo[3,2,1-ij]quinolin-1-yl)-4-(1H-indol-3-yl)pyrrolidine-2,5,-dione is administered to patients with MiT (Microphthalmia Transcription Factor)-associated tumors. MiT tumors, which can include clear cell sarcoma (CCS), alveolar soft part sarcoma (ASPS) and translocation-associated renal cell carcinoma (RCC), are linked biologically through a common chromosomal abnormality that is responsible for the overexpression of c-Met resulting in the development of these tumors. Tumors with this abnormality are resistant to current therapies and, in the absence of successful surgical resection, are invariably fatal.

## O=C1NC(=O)[C@@H](c2cn3c4c(cccc24)CCC3)[C@@H]1c1c[nH]c2ccccc12 (single isomer, unassigned) [(−)-trans-3-(5,6-dihydro-4H-pyrrolo[3,2,1-ij]quinolin-1-yl)-4-(1H-indol-3-yl)pyrrolidine-2,5-dione]
[1]
  apoptosis (Annexin V staining): induced cells to undergo apoptosis
  cells co-stained with both Annexin V and propidium iodide (dead cells): 10-20%
[2]; 200 mg/kg orally, p=0.006
  optimal tumor growth inhibition: 39%
[2]; 300 mg/kg orally, p=0.00001
  optimal tumor growth inhibition: 55%
[2]; oral administration at 200 mg/kg or 300 mg/kg
  change in body weight: no significant change in body weight
[3]
  tumor growth: significantly inhibited tumor growth
[4]
  tumor growth: significantly inhibited tumor growth
[5]
  sensitivity (cytotoxicity MTS assay): sensitive
MCF-7
  sensitivity (cytotoxicity MTS assay): little sensitivity
NCI-H661
  sensitivity (cytotoxicity MTS assay): little sensitivity
SK-MEL-28
  sensitivity (cytotoxicity MTS assay): little sensitivity
[6]
  kinase selectivity in panel: inhibited only c-Met to a significant degree
[7]; 120 mg b.i.d., 23 patients enrolled, fourteen evaluable for efficacy
  patients with stable disease: ten of the evaluable patients have demonstrated stable disease
[7]; a patient with clear cell sarcoma
  response as defined by RECIST: partial response
